Molecular target: T1, human BLT1 receptor (Homo sapiens, UniProt Q15722)
T1 construct: expressed in transfected cells; host or cells: HEK293
Experiment: BLT-1 cAMP Assay
Format: cell-based
Details: antagonist mode; HEK293 cells recombinantly expressing human BLT1; forskolin 4 μM and LTB4 2 nM
Method: The ability of compounds to antagonize the human BLT1 receptor was determined using a kit to measure changes in intracellular cyclic AMP levels (cAMP dynamic assay kit, Cisbio Cat. No. 62AM4PEC). HEK293 cells recombinantly expressing human BLT1, previously frozen in Recovery Medium (Life Technologies, Cat. No. 12648-010) were thawed and diluted into assay medium (HBSS (Hyclone SH 30268.01), 20 mM HEPES (Gibco 15630-106), 800 μM IBMX (Sigma 15879), 0.1% DTPA BSA (Perkin Elmer CR84-100)). The cell suspension was centrifuged at 200×g for 10 min and then resuspended in fresh assay medium to a density of 2.5×10^5 cells/mL. A Labcyte Echo 550 acoustic dispenser was used to transfer 25 nL of test compound dissolved in DMSO into the wells of a dry 384-well plate (Greiner 784075). All subsequent liquid additions were performed using a BIORAPTR (FRD; Beckman Coulter). Next, 5 μL of cell suspension was added and incubated for 20 min. at 37° C. and 5% CO2 in a humidified plastic tray. To test for agonist activity 5 μL of assay buffer containing forskolin (Sigma F-6886. 4 μM for BLT1) was added and incubated for 30 minutes at 37° C. and 5% CO2 in a humidified plastic tray. To test for antagonist activity 5 μL of assay buffer containing forskolin (Sigma F-6886. 4 μM for BLT1) and either LTB4 (Sigma Aldrich L0517; 2 nM BLT1) was added and incubated for 30 minutes at 37° C. and 5% CO2 in a humidified plastic tray.
The levels of cAMP were detected using the CisBio kit following the manufacturer's instructions: cAMP-d2 vial was reconstituted with distilled water and then diluted accordingly with conjugate & lysis buffer. 5 μL of cAMP-d2 working solution was added to all of the wells of the assay plate. cAMP-Cryptate vial was reconstituted with distilled water and then diluted accordingly with conjugate & lysis buffer. 5 μL of cAMP-Cryptate working solution were added to the assay plate. The assay plate was shaken for 3 minutes and incubated at room temperature for 45 minutes, then read on Perkin Elmer Envision. cAMP standard curve and fit data were plotted using a 4 parameter dose response curve fitting algorithm to fit curve. A 4-parameter curve fit (Max, min, log EC50 and slope) was used to transform fluorescent 665 nm/615 nm ratio signal to cAMP concentration. After normalization to treated and untreated controls, the percent effect of signal at each compound concentration was calculated. The plot of percent effect versus the log of compound concentration was fit with a 4-parameter concentration response equation to calculate EC50 values. Compound concentrations tested were 10 000, 3 333, 1 111, 370.4, 123.4, 41.2, 13.7, 4.6, 1.5 and 0.5 nM with 0.25% residual DMSO.

T1 sequence (Q15722 whole entry): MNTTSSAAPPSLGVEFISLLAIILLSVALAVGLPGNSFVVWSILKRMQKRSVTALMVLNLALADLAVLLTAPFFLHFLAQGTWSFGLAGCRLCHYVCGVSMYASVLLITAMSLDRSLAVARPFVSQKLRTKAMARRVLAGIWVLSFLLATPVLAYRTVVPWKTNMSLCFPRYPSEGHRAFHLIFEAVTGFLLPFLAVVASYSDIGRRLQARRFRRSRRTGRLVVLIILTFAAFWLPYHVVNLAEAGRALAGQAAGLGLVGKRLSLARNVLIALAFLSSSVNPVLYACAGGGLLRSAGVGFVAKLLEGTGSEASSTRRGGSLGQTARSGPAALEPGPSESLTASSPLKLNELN

Molecule | EC50 [nM]
O=S(=O)(Nc1ccc(F)cc1-c1ccc2c(c1)OC[C@H](Cc1ccc(-c3cncs3)cn1)[C@H]2O)C(F)(F)F (single isomer, unassigned) [Example 13, 1,1,1-trifluoro-N-{4-fluoro-2-[(3S,4R or 3R,4S)-4-hydroxy-3-{[5-(1,3-thiazol-5-yl)pyridin-2-yl]methyl}-3,4-dihydro-2H-chromen-7-yl]phenyl}methane-sulfonamide] | 4
1,1,1-Trifluoro-N-(2-((3R,4S or 3S,4R)-4-hydroxy-3-((5-(5-methylthiazol-2-yl)pyridin-2-yl)methyl)chroman-7-yl)phenyl)methanesulfonamide [Example 6] | 187
O=S(=O)(Nc1ccccc1-c1ccc2c(c1)OC[C@@H](Cc1ccc(-c3cscn3)cn1)[C@@H]2O)C(F)(F)F (single isomer, unassigned) [Example 9, 1,1,1-Trifluoro-N-(2-((3,4-trans)-4-hydroxy-3-((5-(thiazol-4-yl)pyridin-2-yl)methyl)chroman-7-yl)phenyl)methanesulfonamide] | 107
Cn1cc(-c2ccc(C[C@@H]3COc4cc(-c5ccccc5NS(=O)(=O)C(F)(F)F)ccc4[C@H]3O)nc2)cn1 (single isomer, unassigned) [Example 4, 1,1,1-Trifluoro-N-(2-((3R,4S or 3S,4R)-4-hydroxy-3-((5-(1-methyl-1H-pyrazol-4-yl)pyridin-2-yl)methyl)chroman-7-yl)phenyl)methanesulfonamide] | 140
O=S(=O)(Nc1ccccc1-c1ccc2c(c1)OC[C@@H](Cc1ccc(-c3cscn3)cn1)[C@@H]2O)C(F)(F)F (single isomer, unassigned) [Example 12, 1,1,1-Trifluoro-N-(2-((3,4-trans)-4-hydroxy-3-((5-(thiazol-4-yl)pyridin-2-yl)methyl)chroman-7-yl)phenyl)methanesulfonamide] | 4
O=S(=O)(Nc1ccccc1-c1ccc2c(c1)OC[C@@H](Cc1ccc(-c3nccs3)cn1)[C@@H]2O)C(F)(F)F (single isomer, unassigned) [Example 10, 1,1,1-Trifluoro-N-(2-((3,4-trans)-4-hydroxy-3-((5-(thiazol-2-yl)pyridin-2-yl)methyl)chroman-7-yl)phenyl)methanesulfonamide] | 20
O=S(=O)(Nc1ccc(F)cc1-c1ccc2c(c1)OC[C@H](Cc1ccc(-c3cncs3)cn1)[C@H]2O)C(F)(F)F (racemic) [Example 8, 1,1,1-trifluoro-N-{4-fluoro-2-[(rac-trans) 4-hydroxy-3-{[5-(1,3-thiazol-5-yl)pyridin-2-yl]methyl}-3,4-dihydro-2H-chromen-7-yl]phenyl}methanesulfonamide] | 24
O=S(=O)(Nc1ccc(F)cc1-c1ccc2c(c1)OC[C@@H](Cc1ccc(-c3cncs3)cn1)[C@@H]2O)C(F)(F)F (single isomer, unassigned) [Example 14, 1,1,1-trifluoro-N-{4-fluoro-2-[(3R,4S or 3S,4R)-4-hydroxy-3-{[5-(1,3-thiazol-5-yl)pyridin-2-yl]methyl}-3,4-dihydro-2H-chromen-7-yl]phenyl}methane-sulfonamide] | 31

Next, values leading:

EC50 [nM] | Molecule
4 | 1,1,1-Trifluoro-N-(2-((3S,4R or 3R,4S)-4-hydroxy-3-((5-(5-methylthiazol-2-yl)pyridin-2-yl)methyl)chroman-7-yl)phenyl)methanesulfonamide [Example 7]
294 | Cn1nccc1-c1ccc(C[C@@H]2COc3cc(-c4ccccc4NS(=O)(=O)C(F)(F)F)ccc3[C@H]2O)nc1 (single isomer, unassigned) [Example 5, 1,1,1-Trifluoro-N-(2-((3,4-trans)-4-hydroxy-3-((5-(1-methyl-1H-pyrazol-5-yl)pyridin-2-yl)methyl)chroman-7-yl)phenyl)methanesulfonamide]
16 | O=S(=O)(Nc1ccccc1-c1ccc2c(c1)OC[C@@H](Cc1ccc(-c3nccs3)cn1)[C@@H]2O)C(F)(F)F (single isomer, unassigned) [Example 11, 1,1,1-Trifluoro-N-(2-((3,4-trans)-4-hydroxy-3-((5-(thiazol-2-yl)pyridin-2-yl)methyl)chroman-7-yl)phenyl)methanesulfonamide]
8 | O=S(=O)(Nc1ccccc1-c1ccc2c(c1)OC[C@H](Cc1ccc(-c3cncs3)cn1)[C@H]2O)C(F)(F)F (single isomer, unassigned) [Example 2, 1,1,1-Trifluoro-N-(2-((3S,4R or 3R,4S)-4-hydroxy-3-((5-(thiazol-5-yl)pyridin-2-yl)methyl)chroman-7-yl)phenyl)methanesulfonamide]
82 | O=S(=O)(Nc1ccccc1-c1ccc2c(c1)OC[C@@H](Cc1ccc(-c3cncs3)cn1)[C@@H]2O)C(F)(F)F (single isomer, unassigned) [Example 1, 1,1,1-Trifluoro-N-(2-((3R,4S or 3S,4R)-4-hydroxy-3-((5-(thiazol-5-yl)pyridin-2-yl)methyl)chroman-7-yl)phenyl)methanesulfonamide]
5 | Cn1cc(-c2ccc(C[C@H]3COc4cc(-c5ccccc5NS(=O)(=O)C(F)(F)F)ccc4[C@@H]3O)nc2)cn1 (single isomer, unassigned) [Example 3, 1,1,1-Trifluoro-N-(2-((3S,4R or 3R,4S)-4-hydroxy-3-((5-(1-methyl-1H-pyrazol-4-yl)pyridin-2-yl)methyl)chroman-7-yl)phenyl)methanesulfonamide]
